Series [1] is described as follows: physchem. The note with it: for solubility at 1 h: pH 7.4. As for the experimental part:
1 or 5 mg of pre-lyophilized peptide in 2 mL Eppendorf tube was treated with 200-400 uL of phosphate buffer (PBS: 50 mM sodium phosphate, 150 mM of sodium chloride, pH7.4). Samples were then vortexed and sonicated for 10 min then equilibrated at RT for 1H, and then centrifuged at 10 krpms for 10 min Concentration of the peptides in obtained supernatant was determined by measuring UV absorbance at λ=280 nm. […] Concentration in aliquots was reassessed as previously with UV absorbance. Change in peptide concentration was evaluated after 48 h and 7 days of storage at 4° C.

The target in series [2] is glucagon receptor (Homo sapiens, UniProt P47871). Put plainly: Luciferase-based glucagon assay (cAMP reporter, HEK293 cells). The note with it: for EC50: read-out: EC50 [nM] (SDV), SDV in brackets; for EC50 / in vitro efficacy / potency (in words): luciferase-based glucagon assay; for % bioactivity of GCG: relative to native glucagon.
Chain of glucagon receptor (P47871 26-477): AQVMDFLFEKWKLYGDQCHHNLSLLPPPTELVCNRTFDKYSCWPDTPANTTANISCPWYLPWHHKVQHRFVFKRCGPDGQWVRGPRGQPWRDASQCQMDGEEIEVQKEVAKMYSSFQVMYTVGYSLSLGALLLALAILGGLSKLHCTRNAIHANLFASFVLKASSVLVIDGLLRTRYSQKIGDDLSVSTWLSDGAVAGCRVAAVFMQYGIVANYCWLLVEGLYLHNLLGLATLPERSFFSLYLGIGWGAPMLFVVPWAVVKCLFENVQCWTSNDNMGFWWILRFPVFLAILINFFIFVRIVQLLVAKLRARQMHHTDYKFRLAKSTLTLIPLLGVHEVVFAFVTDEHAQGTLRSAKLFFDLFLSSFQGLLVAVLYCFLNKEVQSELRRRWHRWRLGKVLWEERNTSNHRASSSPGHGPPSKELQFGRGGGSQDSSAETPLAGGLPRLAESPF
Method: At the end of the incubation 100 microliters of LucLite luminescence substrate reagent (Perkin-Elmer, Wellesley, Mass.) were added to each well. […] The luminescent light output indicates activation of the luciferase reporter gene, which in turn is a measure of the activation of the receptor.

Results on eight compounds are retold here after US10683334B2 (INDIANA UNIVERSITY RESEARCH AND TECHNOLOGY CORPORATION, priority 2016, dated 2020).

Square brackets hold non-standard residues; d marks the D form. Peptide text beside a SMILES is read from it. 3Pal = N[C@@H](Cc1cccnc1)C(=O)O; Aib = CC(C)(N)C(=O)O

The solubility is how much of the substance goes into solution per volume. Read a high solubility as a readily soluble substance. In the case of `CSCC[C@H](NC(=O)[C@H](CC(C)C)NC(=O)[C@H](Cc1c[nH]c2ccccc12)NC(=O)[C@H](CCC(N)=O)NC(=O)[C@@H](NC(=O)[C@H](Cc1cccnc1)NC(=O)[C@H](CC(=O)O)NC(=O)[C@H](CCC(N)=O)NC(=O)[C@H](C)NC(=O)[C@H](CCCNC(=N)N)NC(=O)[C@H](CCCNC(=N)N)NC(=O)C(C)(C)NC(=O)[C@H](CC(=O)O)NC(=O)[C@H](CC(C)C)NC(=O)[C@H](Cc1cccnc1)NC(=O)[C@H](CCCCN)NC(=O)[C@H](CO)NC(=O)[C@H](Cc1cccnc1)NC(=O)[C@H](CC(=O)O)NC(=O)[C@H](CO)NC(=O)[C@@H](NC(=O)[C@H](Cc1cccnc1)NC(=O)[C@@H](NC(=O)CNC(=O)[C@H](CCC(N)=O)NC(=O)[C@H](CO)NC(=O)[C@@H](N)Cc1cnc[nH]1)[C@@H](C)O)[C@@H](C)O)C(C)C)C(=O)N[C@@H](CC(N)=O)C(=O)N[C@H](C(=O)O)[C@@H](C)O` [Compound 11, HSQGTXTSDXSKXLDZRRAQDXVQWLMNT] (H-HSQGT[3Pal]TSD[3Pal]SK[3Pal]LD[Aib]RRAQD[3Pal]VQWLMNT-OH), the solubility at 1 h in series [1] was > 10000 µg/mL.

The EC50 is the concentration that produces a half-maximal response. Regarding `CSCC[C@H](NC(=O)[C@H](CC(C)C)NC(=O)[C@H](Cc1c[nH]c2ccccc12)NC(=O)[C@H](CCC(N)=O)NC(=O)[C@@H](NC(=O)[C@H](Cc1ccccc1)NC(=O)[C@H](CC(=O)O)NC(=O)[C@H](CCC(N)=O)NC(=O)[C@H](C)NC(=O)[C@H](CCCNC(=N)N)NC(=O)[C@H](CCCNC(=N)N)NC(=O)C(C)(C)NC(=O)[C@H](CC(=O)O)NC(=O)[C@H](CC(C)C)NC(=O)[C@H](Cc1ccncc1)NC(=O)[C@H](CCCCN)NC(=O)[C@H](CO)NC(=O)[C@H](Cc1ccncc1)NC(=O)[C@H](CC(=O)O)NC(=O)[C@H](CO)NC(=O)[C@@H](NC(=O)[C@H](Cc1ccncc1)NC(=O)[C@@H](NC(=O)CNC(=O)[C@H](CCC(N)=O)NC(=O)[C@H](CO)NC(=O)[C@@H](N)Cc1c[nH]cn1)[C@@H](C)O)[C@@H](C)O)C(C)C)C(=O)N[C@@H](CC(N)=O)C(=O)N[C@H](C(=O)O)[C@@H](C)O` [Compound 10, HSQGTUTSDUSKULDZRRAQDFVQWLMNT], the solubility at 1 h in series [1] was > 10000 µg/mL. In addition, in series [2], the EC50 came out at 0.0843 nM and the “% bioactivity of GCG” value is given as 24%.

Turning to `CSCC[C@H](NC(=O)[C@H](CC(C)C)NC(=O)[C@H](Cc1c[nH]c2ccccc12)NC(=O)[C@H](CCC(N)=O)NC(=O)[C@@H](NC(=O)[C@H](Cc1ccccc1)NC(=O)[C@H](CC(=O)O)NC(=O)[C@H](CCC(N)=O)NC(=O)[C@H](C)NC(=O)[C@H](CCCNC(=N)N)NC(=O)[C@H](CCCNC(=N)N)NC(=O)C(C)(C)NC(=O)[C@H](CC(=O)O)NC(=O)[C@H](CC(C)C)NC(=O)[C@H](Cc1ccncc1)NC(=O)[C@H](CCCCN)NC(=O)[C@H](CO)NC(=O)[C@H](Cc1ccncc1)NC(=O)[C@H](CC(=O)O)NC(=O)[C@H](CO)NC(=O)[C@@H](NC(=O)[C@H](Cc1ccccc1)NC(=O)[C@@H](NC(=O)CNC(=O)[C@H](CCC(N)=O)NC(=O)[C@H](CO)NC(=O)[C@@H](N)Cc1c[nH]cn1)[C@@H](C)O)[C@@H](C)O)C(C)C)C(=O)N[C@@H](CC(N)=O)C(=O)N[C@H](C(=O)O)[C@@H](C)O` [Compound 8, HSQGTFTSDUSKULDZRRAQDFVQWLMNT], the solubility at 1 h in series [1] is > 10000 µg/mL. For the same compound, in series [2], the EC50 worked out at 0.0309 nM and the “% bioactivity of GCG” value was 66%.

On to `CSCC[C@H](NC(=O)[C@H](CC(C)C)NC(=O)[C@H](Cc1c[nH]c2ccccc12)NC(=O)[C@H](CCC(N)=O)NC(=O)[C@@H](NC(=O)[C@H](Cc1ccccc1)NC(=O)[C@H](CC(=O)O)NC(=O)[C@H](CCC(N)=O)NC(=O)[C@H](C)NC(=O)[C@H](CCCNC(=N)N)NC(=O)[C@H](CCCNC(=N)N)NC(=O)C(C)(C)NC(=O)[C@H](CC(=O)O)NC(=O)[C@H](CC(C)C)NC(=O)[C@H](Cc1ccc(O)cc1)NC(=O)[C@H](CCCCN)NC(=O)[C@H](CO)NC(=O)[C@H](Cc1ccc(O)cc1)NC(=O)[C@H](CC(=O)O)NC(=O)[C@H](CO)NC(=O)[C@@H](NC(=O)[C@H](Cc1cccnc1)NC(=O)[C@@H](NC(=O)CNC(=O)[C@H](CCC(N)=O)NC(=O)[C@H](CO)NC(=O)[C@@H](N)Cc1c[nH]cn1)[C@@H](C)O)[C@@H](C)O)C(C)C)C(=O)N[C@@H](CC(N)=O)C(=O)N[C@H](C(=O)O)[C@@H](C)O` [Compound 3, HSQGTXTSDYSKYLDZRRAQDFVQWLMNT], for which the solubility at 1 h in series [1] was > 1000 µg/mL. Moreover, in series [2], the EC50 was 0.017 nM and the “% bioactivity of GCG” value was determined as 119%.

Regarding `CSCC[C@H](NC(=O)[C@H](CC(C)C)NC(=O)[C@H](Cc1c[nH]c2ccccc12)NC(=O)[C@H](CCC(N)=O)NC(=O)[C@@H](NC(=O)[C@H](Cc1ccccc1)NC(=O)[C@H](CC(=O)O)NC(=O)[C@H](CCC(N)=O)NC(=O)[C@H](C)NC(=O)[C@H](CCCNC(=N)N)NC(=O)[C@H](CCCNC(=N)N)NC(=O)C(C)(C)NC(=O)[C@H](CC(=O)O)NC(=O)[C@H](CC(C)C)NC(=O)[C@H](Cc1cccnc1)NC(=O)[C@H](CCCCN)NC(=O)[C@H](CO)NC(=O)[C@H](Cc1cccnc1)NC(=O)[C@H](CC(=O)O)NC(=O)[C@H](CO)NC(=O)[C@@H](NC(=O)[C@H](Cc1ccccc1)NC(=O)[C@@H](NC(=O)CNC(=O)[C@H](CCC(N)=O)NC(=O)[C@H](CO)NC(=O)[C@@H](N)Cc1c[nH]cn1)[C@@H](C)O)[C@@H](C)O)C(C)C)C(=O)N[C@@H](CC(N)=O)C(=O)N[C@H](C(=O)O)[C@@H](C)O` [Compound 7, HSQGTFTSDXSKXLDZRRAQDFVQWLMNT], the solubility in series [1] (pH 7) was > 10000 µg/mL. For the same compound, the solubility at 1 h in series [1] was > 10000 µg/mL. Moreover, in series [2], the “in vitro efficacy / potency (in words)” value is reported as “fully potent”, the EC50 was 0.0359 nM and the “% bioactivity of GCG” value is listed as 57%.

Take `CSCC[C@H](NC(=O)[C@H](CC(C)C)NC(=O)[C@H](Cc1c[nH]c2ccccc12)NC(=O)[C@H](CCC(N)=O)NC(=O)[C@@H](NC(=O)[C@H](Cc1cccnc1)NC(=O)[C@H](CC(=O)O)NC(=O)[C@H](CCC(N)=O)NC(=O)[C@H](C)NC(=O)[C@H](CCCNC(=N)N)NC(=O)[C@H](CCCNC(=N)N)NC(=O)C(C)(C)NC(=O)[C@H](CC(=O)O)NC(=O)[C@H](CC(C)C)NC(=O)[C@H](Cc1cccnc1)NC(=O)[C@H](CCCCN)NC(=O)[C@H](CO)NC(=O)[C@H](Cc1cccnc1)NC(=O)[C@H](CC(=O)O)NC(=O)[C@H](CO)NC(=O)[C@@H](NC(=O)[C@H](Cc1cccnc1)NC(=O)[C@@H](NC(=O)CNC(=O)[C@H](CCC(N)=O)NC(=O)[C@H](CO)NC(=O)[C@@H](N)Cc1c[nH]cn1)[C@@H](C)O)[C@@H](C)O)C(C)C)C(=O)N[C@@H](CC(N)=O)C(=O)N[C@H](C(=O)O)[C@@H](C)O` [Compound 11, HSQGTXTSDXSKXLDZRRAQDXVQWLMNT] (H-HSQGT[3Pal]TSD[3Pal]SK[3Pal]LD[Aib]RRAQD[3Pal]VQWLMNT-OH; N-terminus and C-terminus assumed): in series [2], the “in vitro efficacy / potency (in words)” value is reported as “lower potency”, the EC50 was found to be 2.33 nM and the “% bioactivity of GCG” value was 1%.

For the compound `CSCC[C@H](NC(=O)[C@H](CC(C)C)NC(=O)[C@H](Cc1c[nH]c2ccccc12)NC(=O)[C@H](CCC(N)=O)NC(=O)[C@@H](NC(=O)[C@H](Cc1ccccc1)NC(=O)[C@H](CC(=O)O)NC(=O)[C@H](CCC(N)=O)NC(=O)[C@H](C)NC(=O)[C@H](CCCNC(=N)N)NC(=O)[C@H](CCCNC(=N)N)NC(=O)C(C)(C)NC(=O)[C@H](CC(=O)O)NC(=O)[C@H](CC(C)C)NC(=O)[C@H](Cc1ccncc1)NC(=O)[C@H](CCCCN)NC(=O)[C@H](CO)NC(=O)[C@H](Cc1ccc(O)cc1)NC(=O)[C@H](CC(=O)O)NC(=O)[C@H](CO)NC(=O)[C@@H](NC(=O)[C@H](Cc1ccccc1)NC(=O)[C@@H](NC(=O)CNC(=O)[C@H](CCC(N)=O)NC(=O)[C@H](CO)NC(=O)[C@@H](N)Cc1c[nH]cn1)[C@@H](C)O)[C@@H](C)O)C(C)C)C(=O)N[C@@H](CC(N)=O)C(=O)N[C@H](C(=O)O)[C@@H](C)O` [Compound 6, HSQGTFTSDYSKULDZRRAQDFVQWLMNT], the solubility at 1 h in series [1] was > 1000 µg/mL. Besides, in series [2], the EC50 came to 0.0339 nM and the “% bioactivity of GCG” value came out at 60%.

Turning to `CSCC[C@H](NC(=O)[C@H](CC(C)C)NC(=O)[C@H](Cc1c[nH]c2ccccc12)NC(=O)[C@H](CCC(N)=O)NC(=O)[C@@H](NC(=O)[C@H](Cc1ccccc1)NC(=O)[C@H](CC(=O)O)NC(=O)[C@H](CCC(N)=O)NC(=O)[C@H](C)NC(=O)[C@H](CCCNC(=N)N)NC(=O)[C@H](CCCNC(=N)N)NC(=O)C(C)(C)NC(=O)[C@H](CC(=O)O)NC(=O)[C@H](CC(C)C)NC(=O)[C@H](Cc1ccc(O)cc1)NC(=O)[C@H](CCCCN)NC(=O)[C@H](CO)NC(=O)[C@H](Cc1cccnc1)NC(=O)[C@H](CC(=O)O)NC(=O)[C@H](CO)NC(=O)[C@@H](NC(=O)[C@H](Cc1ccccc1)NC(=O)[C@@H](NC(=O)CNC(=O)[C@H](CCC(N)=O)NC(=O)[C@H](CO)NC(=O)[C@@H](N)Cc1c[nH]cn1)[C@@H](C)O)[C@@H](C)O)C(C)C)C(=O)N[C@@H](CC(N)=O)C(=O)N[C@H](C(=O)O)[C@@H](C)O` [Compound 4, HSQGTFTSDXSKYLDZRRAQDFVQWLMNT], the solubility at 1 h in series [1] was > 1000 µg/mL. In series [2], the EC50 came to 0.0268 nM and the “% bioactivity of GCG” value turned out to be 76%.
